Among the data in the supplement of paper PMC10307832 are relative viability values, retold here.

What all share (assay): relative viability (nuclei count vs DMSO), 5 days (fraction); higher = more cells survive
Compound in the assay “Ibrutinib + Olaparib”: C=CC(=O)N1CCC[C@@H](n2nc(-c3ccc(Oc4ccccc4)cc3)c3c(N)ncnc32)C1 [Ibrutinib] + O=C(c1cc(Cc2n[nH]c(=O)c3ccccc23)ccc1F)N1CCN(C(=O)C2CC2)CC1 [Olaparib] (partner 8 µM)
An outline of the steps:
(§1)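 Relative viability equals treated-well nuclei counts divided by vehicle-well nuclei counts. Counts came from 4× images of lung cancer cell lines grown in 1536-well plates for 5 days after pin-tool dosing on the day after seeding. Dosing used one drug alone or a fixed anchor-drug dose plus five library-drug doses (not always all listed) in √10 steps, and values are medians of duplicate plates.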

Compound in the assay “BMX-IN-1 + Luminespib”: C=CC(=O)Nc1cc(-n2c(=O)ccc3cnc4ccc(-c5ccc(NS(C)(=O)=O)cc5)cc4c32)ccc1C [BMX-IN-1] + CCNC(=O)c1noc(-c2cc(C(C)C)c(O)cc2O)c1-c1ccc(CN2CCOCC2)cc1 [Luminespib] (partner 0.01 µM)
An outline of the steps: as §1

Compound in the assay “PAC-1 + Foretinib”: C=CCc1cccc(/C=N/NC(=O)CN2CCN(Cc3ccccc3)CC2)c1O [PAC-1] + COc1cc2c(Oc3ccc(NC(=O)C4(C(=O)Nc5ccc(F)cc5)CC4)cc3F)ccnc2cc1OCCCN1CCOCC1 [Foretinib] (partner 0.25 µM)
In outline: as §1

Compound in the assay “PAC-1 + Crizotinib”: C=CCc1cccc(/C=N/NC(=O)CN2CCN(Cc3ccccc3)CC2)c1O [PAC-1] + C[C@@H](Oc1cc(-c2cnn(C3CCNCC3)c2)cnc1N)c1c(Cl)ccc(F)c1Cl [Crizotinib] (partner 1 µM)
In outline:
as §1

On to SK-MES-1, for which the relative viability in the assay with Ibrutinib + Olaparib (first compound 0.005 µM) stood at 0.748; with Ibrutinib + Olaparib (first compound 0.01581 µM), 0.639; with Ibrutinib + Olaparib (first compound 0.05 µM) it was 0.652; with Ibrutinib + Olaparib (first compound 0.1581 µM), 0.879; with Ibrutinib + Olaparib (first compound 0.5 µM) it was 0.461; with BMX-IN-1 + Luminespib (first compound 0.02 µM), 0.831. The relative viability in the assay with BMX-IN-1 + Luminespib (first compound 0.2 µM) came to 0.879; in the assay with BMX-IN-1 + Luminespib (first compound 0.6325 µM) it was 0.835; with BMX-IN-1 + Luminespib (first compound 2 µM) it was 0.921; in the assay with PAC-1 + Foretinib (first compound 0.02 µM) it was 0.816; in the assay with PAC-1 + Foretinib (first compound 0.06325 µM), 1.03; with PAC-1 + Foretinib (first compound 0.2 µM), 0.851. The relative viability with PAC-1 + Foretinib (first compound 2 µM) worked out at 0.943; with PAC-1 + Crizotinib (first compound 0.02 µM) it was 1.05; with PAC-1 + Crizotinib (first compound 0.06325 µM), 1.01; with PAC-1 + Crizotinib (first compound 0.2 µM) it was 1.01; with PAC-1 + Crizotinib (first compound 2 µM), 1.01.
